Data: article doi:10.1101/2022.06.11.495772v2 (biorxiv, 2022)
Square brackets hold non-standard residues; d marks the D form. Peptide text beside a SMILES is read from it. NMeY = CN[C@@H](Cc1ccc(O)cc1)C(=O)O; NMeT = CN[C@H](C(=O)O)[C@@H](C)O; NMeL = CN[C@@H](CC(C)C)C(=O)O

Legend:
[1] = target: HsMetAP1 (Homo sapiens, UniProt P53582); assay: biochemical
[2] = target: HsMetAP2 (Homo sapiens, UniProt P50579); assay: biochemical
[3] = target: T1, EcMetAP (Escherichia coli, UniProt P0AE18); assay: biochemical
T1 sequence (P0AE18 2-264): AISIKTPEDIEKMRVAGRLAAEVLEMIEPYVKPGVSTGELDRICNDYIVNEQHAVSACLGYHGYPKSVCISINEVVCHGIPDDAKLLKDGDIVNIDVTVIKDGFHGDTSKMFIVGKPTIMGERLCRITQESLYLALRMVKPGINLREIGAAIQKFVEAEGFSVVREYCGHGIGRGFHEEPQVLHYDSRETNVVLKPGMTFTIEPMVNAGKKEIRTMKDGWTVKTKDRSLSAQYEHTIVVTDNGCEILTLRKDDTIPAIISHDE

[4] = target: T1, EcMetAP; assay: coupled fluorogenic Met-Gly-Pro-AMC / DPPIV assay; type: biochemical

Chain of HsMetAP2 (P50579 2-478): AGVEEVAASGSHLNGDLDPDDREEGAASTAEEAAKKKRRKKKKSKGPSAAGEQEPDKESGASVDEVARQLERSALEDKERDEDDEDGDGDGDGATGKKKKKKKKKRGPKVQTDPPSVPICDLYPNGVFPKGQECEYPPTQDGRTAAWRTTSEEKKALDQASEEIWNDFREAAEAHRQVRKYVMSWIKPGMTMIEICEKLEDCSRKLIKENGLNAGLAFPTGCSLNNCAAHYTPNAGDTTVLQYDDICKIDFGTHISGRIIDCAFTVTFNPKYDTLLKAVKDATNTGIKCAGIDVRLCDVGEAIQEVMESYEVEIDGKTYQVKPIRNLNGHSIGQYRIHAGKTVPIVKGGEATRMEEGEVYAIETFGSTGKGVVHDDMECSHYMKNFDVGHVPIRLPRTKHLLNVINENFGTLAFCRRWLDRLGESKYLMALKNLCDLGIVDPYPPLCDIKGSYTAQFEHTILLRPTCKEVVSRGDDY

SMILES	IC50 [1] [µM]	IC50 [2] [µM]	IC50 [3] [µM]	IC50 [4] [µM]
CC(C)CC1C(=O)OC(C)C(N(C)C(=O)C(Cc2ccc(O)cc2)N(C)C)C(=O)N(C)C(CC(C)C)C(=O)OC(C)C(N(C)C(=O)C(Cc2ccc(O)cc2)N(C)C)C(=O)N1C (stereo not shown) [metapeptin A]	> 2000	> 2000	> 2000	–
CO[C@@H]1[C@H](OC(=O)NC(=O)CCl)CC[C@]2(CO2)[C@H]1[C@@]1(C)O[C@@H]1CC=C(C)C [TNP-470]	> 2000	0.69 ± 0.05	> 2000	–
CCCCCCCCCCCCCC(=O)O[C@H]1CC[C@H](NC(=O)[C@H](OC)[C@H](O)[C@@H](O)[C@H](O)/C=C/C(C)C)C(=O)N(C)C1 [bengamide B]	–	–	> 2000	–
CN[C@@H](Cc1ccc(O)cc1)C(=O)N(C)[C@H](C(=O)N(C)[C@@H](CC(C)C)C(=O)OC)[C@@H](C)OC [NMe-Monomer] (H-[NMeY]-[NMeT](Me)-[NMeL]-OMe)	> 2000	> 2000	–	–
CNC(Cc1ccc(O)cc1)C(=O)N(C)C1C(=O)N(C)C(CC(C)C)C(=O)OC(C)C(N(C)C(=O)C(Cc2ccc(O)cc2)N(C)C)C(=O)N(C)C(CC(C)C)C(=O)OC1C (stereo not shown) [metapeptin B]	49.7 ± 3.98	> 2000	0.47 ± 0.29	~0.5
